Assays:
IL-4 = IL-4 analysis of co-culture supernatants; assay type: cell-based, human; details: co-cultures of β-glucan-treated M2 macrophages and CD4 T cells
Protocol: CD14^+ monocytes from human whole blood were enriched using Ficoll gradient and magnetic bead separation. Enriched monocytes (5×10^5 cells per mL) were then cultured in either M1-polarizing (XVivo 10 media (Lonza Group) supplemented with 5% autologous serum and 100 ng/mL recombinant human granulocyte macrophage colony-stimulating factor (rhGM-CSF) (R&D Systems) or M2-polarizing (XVivo 10 media supplemented with 10% autologous serum and 50 ng/mL recombinant human macrophage colony-stimulating factor (rhM-CSF) (R&D Systems) conditions for 6 days. In experiments performed to evaluate the effect of β-glucan, whole blood was first incubated with vehicle (sodium citrate buffer) or 25 μg/mL soluble β-glucan for 2 hours at 37° C. and then the monocytes were isolated and differentiated. Morphology was checked before macrophages were harvested for phenotypic analysis. […] T cell proliferation was measured at the end of the experiment (day 9-day 11) by flow cytometry, and results are graphically shown as CFSE-dilution peaks. […] Quantitative results were reported as the Division Index (the average number of cell divisions a population underwent) calculated for each of the triplicate wells in each of the culture conditions. […]
Modulation of IFN-γ and IL-4 production of vehicle- and β-glucan-treated M2 macrophages was then evaluated. […]

mMoDC = assay: Flow cytometry of maturation markers on mature monocyte-derived dendritic cells (mMoDC); assay type: cell-based, human
Protocol: Given that macrophages and dendritic cells are the two key antigen presenting cell types that bridge innate and adaptive immunity, the phenotypic and functional effect of soluble β-glucan was also evaluated on human monocyte-derived dendritic cells (MoDC). Monocytes enriched from soluble β-glucan- or vehicle-treated whole blood were cultured in media containing the appropriate cytokines, GM-CSF plus IL-4, for differentiation of dendritic cells. Steps included in the method for in vitro culture and characterization of human MoDCs are outlined below.
The phenotypic and functional evaluation of mMoDC prepared from soluble β-glucan-treated whole blood of a high binder and low binder was carried out. mMoDCs from a high binder and a low binder were prepared as described above. mMoDCs were evaluated for CD80, CD83, CD86 and HLA-DR expression by flow cytometry, and median MFI was calculated for isotype control staining and surface antigen staining and the results are shown in Table 7.
MoDC derived from β-glucan-treated monocytes are more mature even in immunosuppressive conditions. MoDCs were prepared as described above. TCM was added to account for 70% of the volume of the culture on day 0 and was present throughout the culturing period. mMoDCs cultured in the presence of TCM were subsequently evaluated for phenotypic changes.

CD4 T cells = assay: Mac-CD4 T cell proliferation assay (CFSE dilution, Division Index); assay type: cell-based, human
Protocol: CD14^+ monocytes from human whole blood were enriched using Ficoll gradient and magnetic bead separation. Enriched monocytes (5×10^5 cells per mL) were then cultured in either M1-polarizing (XVivo 10 media (Lonza Group) supplemented with 5% autologous serum and 100 ng/mL recombinant human granulocyte macrophage colony-stimulating factor (rhGM-CSF) (R&D Systems) or M2-polarizing (XVivo 10 media supplemented with 10% autologous serum and 50 ng/mL recombinant human macrophage colony-stimulating factor (rhM-CSF) (R&D Systems) conditions for 6 days. In experiments performed to evaluate the effect of β-glucan, whole blood was first incubated with vehicle (sodium citrate buffer) or 25 μg/mL soluble β-glucan for 2 hours at 37° C. and then the monocytes were isolated and differentiated. Morphology was checked before macrophages were harvested for phenotypic analysis. Culture medium of the day 6 macrophage culture (MCM) was collected, spun down to remove contaminated cell pellet and then frozen down for subsequent cytokine analysis by ELISA or used to setup a co-culture with CD3 & CD28-stimulated CD4 T cells (MCM-CD4 T) for evaluation of either surface markers or CD4 T cell proliferation. The macrophages were used to setup a co-culture with CD3 & CD28- or CD3 only-stimulated CD4 T cells (Mac-CD4 T) on day 6 for evaluation of either surface marker modulation or effect on CD4 T cell proliferation. For Mac-CD4 T cell proliferation study, M1 or M2 macrophages were cultured with CD3 & CD28- or CD3 only-stimulated, CFSE-labeled, autologous CD4 T cells at a 1:10 ratio. T cell proliferation was measured at the end of the experiment (day 9-day 11) by flow cytometry, and results are graphically shown as CFSE-dilution peaks. The assessment of CD3-only stimulated T cells was always done on day 11. Quantitative results were reported as the Division Index (the average number of cell divisions a population underwent) calculated for each of the triplicate wells in each of the culture conditions. Culture supernatants of Mac-CD4 T co-cultures were collected for subsequent cytokine analysis.
Next, vehicle- or β-glucan-treated M1 or M2 macrophages were cultured with CD3 and CD28-stimulated, carboxyfluorescein diacetate succinimidyl ester (CFSE)-labeled autologous CD4 T cells and T cell proliferation was measured at the end of the experiment by flow cytometry and results quantitatively reported as division index (the average number of cell divisions a population has undergone).
Next, the ability of M1/M2 macrophages derived from soluble β-glucan-treated monocytes from high binders and low binders to enhance CD3 & CD28-stimulated CD4 T cell proliferation was evaluated.
Evaluation of cell-to-cell contact was carried out as follows: vehicle- and β-glucan-treated M2 macrophages and CD3 & CD28− versus CD3 only-stimulated CD4 T cell co-cultures were utilized for measuring CD4 T cell proliferation and IFN-γ production.

M2 macrophages = assay: Mac-CD4 T co-culture surface marker modulation on macrophages; assay type: cell-based, human
Protocol: For evaluation of Mac-CD4 T cell surface marker modulation, M2 macrophages were co-cultured with T cells as described above and cells were harvested on day 8, day 9 and day 10 to perform surface receptor staining on both M2 macrophages and T cells.
Changes in surface marker expression on both macrophages and CD3 & CD28-stimulated T cells were also measured. Vehicle- and β-glucan-treated M2 macrophages and CD T cells from the co-cultures were evaluated by flow cytometry for the modulation of co-stimulatory or co-inhibitory molecules. FIG. 8C and Table 9 are representative results from 2 different experiments.

MiaPaCa = assay: PD-L1 upregulation in MiaPaCa tumor cells by treated M2 macrophages; assay type: cell-based
Protocol: β-glucan- and vehicle-treated M2 macrophages and β-glucan-treated M2 macrophages+ABA were cultured with high binder serum and low binder serum to evaluate PD-L1 expression on tumor cells.

[1] = MoDC cultured in TCM, immunosuppressive conditions
[2] = relative to vehicle-treated M2 macrophages, co-culture

β(1,6)-[poly-(1,3)-D-glucopyranosyl]-poly-β(1,3)-D-glucopyranose [β-glucan]
production of immunosuppressive cytokine IL-4 (IL-4): no change | CD80 median MFI (mMoDC; MoDC cultured in TCM (70% of volume, from day 0), immunosuppressive conditions): 465 | CD83 median MFI (mMoDC; [1]): 607 | CD86 median MFI (mMoDC; [1]): 15797 | HLA-DR median MFI (mMoDC; [1]): 361 | CD80 median MFI (mMoDC; mMoDCs, high binder): 744 | CD83 median MFI (mMoDC; mMoDCs, high binder): 466 | CD86 median MFI (mMoDC; mMoDCs, high binder): 10759 | HLA-DR median MFI (mMoDC; mMoDCs, high binder): 7049 | CD80 median MFI (mMoDC; mMoDCs, low binder): 1197 | CD83 median MFI (mMoDC; mMoDCs, low binder): 2924 | CD86 median MFI (mMoDC; mMoDCs, low binder): 77749 | HLA-DR median MFI (mMoDC; mMoDCs, low binder): 2960 | CD4 T cell proliferation (CD4 T cells; M2 macrophages cultured in TCM and M2a macrophages cultured in IL-4, vs vehicle-treated): maintained the ability to enhance CD4 T cell proliferation | CD3 & CD28-stimulated CD4 T cell proliferation (CD4 T cells; β-glucan-treated M1 macrophages, high binders or low binders): no differences | CD3 & CD28-stimulated CD4 T cell proliferation (CD4 T cells; β-glucan-treated M2 macrophages vs vehicle-treated, high binders): significantly higher ability to enhance | CD4 T cell proliferation (CD4 T cells; β-glucan-treated M2 macrophages with CD3 and CD28-stimulated CD4 T cells, FIG. 2C): enhance CD4 T cell proliferation | CD4 T cell proliferation (CD4 T cells; β-glucan-treated M2 macrophages, absence of exogenous CD28 antibody (CD3 only)): significantly higher ability to enhance | CD3 & CD28-stimulated CD4 T cell proliferation (CD4 T cells; β-glucan-treated M2 macrophages, low binders): no enhanced proliferation | Change in MFI on Macrophages: 4-1BBL (M2 macrophages; [2]): No change | Change in MFI on Macrophages: CD40 (M2 macrophages; [2]): No change | Change in MFI on Macrophages: CD80 (M2 macrophages; [2]): No change | Change in MFI on Macrophages: CD172 (M2 macrophages; [2]): No change | Change in MFI on Macrophages: CD209 (M2 macrophages; [2]): No change | Change in MFI on Macrophages: OX40 (M2 macrophages; [2]): No change | Change in MFI on Macrophages: CD86 (M2 macrophages; relative to vehicle-treated M2 macrophages, co-culture (day 8)): Increase | Change in MFI on Macrophages: PD-L1 (CD274) (M2 macrophages; relative to vehicle-treated M2 macrophages, co-culture (day 9)): Increase | Change in MFI on Macrophages: HLA-DR (M2 macrophages; β-glucan-treated M2 macrophages relative to vehicle-treated, co-culture with CD3 & CD28-stimulated T cells): No change | expression of PD-L1 on tumor cells (MiaPaCa; β-glucan-treated M2 macrophages with addition of ABA, low binders): also increased expression | expression of PD-L1 on tumor cells (MiaPaCa; β-glucan-treated M2 macrophages, high binders): increased expression
